Source: US20160303184A1, “VANCOMYCIN-SUGAR CONJUGATES AND USES THEREOF” (JAWAHARLAL NEHRU CENTRE FOR ADVANCED SCIENTIFIC RESEARCH …, priority 2013, published 2016)
Converted amounts (≈) assume the structure as drawn. “Also recorded” adds a separate entry of the source. Where two headings read alike, the source gives them in different places.

Key:
[1] = tested on: Vancomycin-resistant E. faecium (VanA, ATCC 51559); test: MIC, micro-dilution broth, VRE (VanA); assay type: cell-based
Procedure: (§1) All test compounds were assayed in a micro-dilution broth format. Stock solutions were made by serially diluting the compounds using autoclaved millipore water or broth media. The antibacterial activity of the compounds was determined against methicillin-sensitive S. aureus (MSSA), methicillin-resistant S. aureus (MRSA), vancomycin-intermediate-resistant S. aureus (VISA), vancomycin-sensitive E. faecium (VSE) and vancomycin-resistant E. faecium (VRE). Bacteria, to be tested, were grown for about 10 h in the suitable media, MSSA, MRSA and VISA were grown in yeast-dextrose broth (about 1 g of beef extract, about 2 g of yeast extract, about 5 g of peptone and about 5 g of NaCl in about 1000 mL of sterile distilled water (pH-7)). For solid media, about 5% agar was used along with above mentioned composition. VSE and VRE were cultured in brain heart infusion broth (Himedia). The bacterial samples were freeze dried and stored at −80° C. About 5 μL of these stocks were added to about 3 mL of the nutrient broth and the culture was grown for about 6 h at about 37° C. prior to the experiments. This 6 h grown culture gives about 10^9 cfu/mL and this was determined by spread plating method. The 6 h grown culture was diluted to give effective cell concentration of about 10^5 cfu/mL which was then used for determining MIC. Compounds were serially diluted, in sterile water (2 fold dilution is employed) in a way that the working concentration was about 10 μM for MSSA, MRSA, and VSE while for VRE and VISA it was about 100 μM. About 50 μL of these serial dilutions were added to the wells of 96 well plate followed by the addition of about 150 μL of bacterial solution. The plates were then incubated at about 37° C., 150 rpm in the incubator and O.D at 600 nm was recorded at an interval of about 10 h and 24 h using TECAN (Infinite series, M200 pro) Plate Reader. Each concentration had triplicate values and the whole experiment was done at least twice and the MIC value was determined by taking the average of triplicate. O. D. values for each concentration and plotting it against concentration. The data was then subjected to sigmoidal fitting. From the curve the MIC value was determined, as the point in the curve where the O. D. was similar to that of control having no bacteria.

MR-VISA = test: Pharmacodynamics against MR-VISA thigh infection, single dose; assay type: in vivo, Staphylococcus aureus; settings: single i.v. dose; for ED50: 50% maximal bacterial killing; for EDstasis: 24-h colony count similar to pretreatment count
Procedure: Data are expressed as means±SD (error bars). A separate single-dose study of compound 7 was performed in neutropenic mice inoculated in the thigh with 50 μL of MR-VISA (10^7 CFU/ml). Infected animals were treated intravenously, at 1 h post infection, with 2 mg/kg, 4 mg/kg, 8 mg/kg and 12 mg/kg. At 24 h post inoculation mice were sacrificed and the thigh tissues were harvested for determination of bacterial titer as mentioned above.

[2] = Single dose pharmacokinetics; assay type: in vivo, CD-1 female mice; design: clearance: unit not given here; settings: 12 mg/kg single i.v., mice, plasma
Procedure: A single dose pharmacokinetic analysis of compound 7 was performed in CD-1 female mice. Mice were administered a single intravenous dose of 12 mg/kg. Blood samples were collected from mice by retro-orbital aspiration and placed into heparinized tubes at different time intervals after dosing. The plasma was separated by centrifugation, and drug plasma concentrations were measured by microbiologic assay with Bacillus subtilis as the test organism. The lower limit of detection of the assay was 0.6 μg/ml. Pharmacokinetic parameters, including half-life, AUC and Cmax were calculated by using non-compartmental model.

[3] = tested on: Vancomycin-sensitive E. faecium (ATCC 19634); test: MIC, micro-dilution broth, VSE; assay type: cell-based; settings: Enterococcus faecium, ATCC19634, read-out: MIC VSE
Procedure: as §1

[4] = tested on: Methicillin-resistant S. aureus (ATCC 33591); test: MIC, micro-dilution broth, MRSA; assay type: cell-based; settings: Staphylococcus aureus, read-out: MIC MRSA
Procedure: as §1

[5] = tested on: Methicillin-sensitive S. aureus (MTCC 737); test: MIC, micro-dilution broth, MSSA; assay type: cell-based; settings: Staphylococcus aureus, read-out: MIC MSSA
Procedure: as §1

[6] = Acute toxicity (blood biochemistry, liver and kidney histology); assay type: in vivo, mice; settings: 12 mg/kg i.v.
Procedure: For the evaluation of the acute toxicity, two groups of 10 mice each received intravenous injection of compound 7 at 12 mg/kg in 0.2 ml of sterilized saline. 10 mice were sacrificed at 48 h and the rest mice at 14 days to collect blood samples for analysis of biochemical parameters such as alanine transaminase (ALT), alkaline phosphatase (ALP), urea nitrogen, creatinine, sodium ion, potassium ion and chloride ion levels. Blood samples were analyzed at Gokula Metropolis clinical laboratory, Bengaluru, India. And also to examine the adverse effects of compound 7 in tissue level, we have isolated liver and kidney organs in 10% neutral formalin. Tissues were processed by dehydration in ascending grades of ethyl alcohol, clearing in xylol, embedding in paraffin wax and prepared sections of 5 μm thickness. Then paraffin sections were stained using haematoxylin and eosin, and observed under light microscope for histological changes.

Systemic toxicity (LD50) = test: Systemic toxicity (LD50); design: species or system CD-1 female mice; settings: female, CD-1, mouse, in vivo, iv, single-dose i.v., mice
Procedure: Systemic toxicity was examined after i.v injection of compound 7 to CD-1 female mice. Each mouse was injected with a 0.2 ml of freshly prepared compound 7 solution in saline. The doses of the compound administered per group were according to OECD guidelines (OECD, 2005).

Q: Which MIC ([1]; Enterococcus faecium, read-out: MIC VRE (VanA)) does the source give for `CCCCCCCCCCN[C@]1(C)C[C@H](OC2C(O)[C@@H](O)C(CO)O[C@@H]2Oc2c3cc4cc2Oc2ccc(cc2Cl)[C@@H](O)[C@@H](NC(=O)[C@@H](CC(C)C)NC)C(=O)N[C@@H](CC(N)=O)C(=O)N[C@H]4C(=O)N[C@H]2C(=O)N[C@H](C(=O)N[C@H](C(=O)NCCCNC(=O)[C@H](O)[C@@H](O)[C@H](OC4OC(CO)C(O)C(O)[C@H]4O)[C@H](O)CO)c4cc(O)cc(O)c4-c4cc2ccc4O)[C@H](O)c2ccc(c(Cl)c2)O3)OC(C)[C@@H]1O` (stereo partly shown) [Compound 7] here?
A: 1 µM (≈ 1.99 µg/mL)

Q: What about the “fold higher activity than vancomycin” value ([1]; VRE (VanA phenotype)) of the same compound?
A: > 700 fold

Q: What about the ED50 (MR-VISA; Staphylococcus aureus, VISA, in Mus musculus, iv, 24 h, neutropenic mice thigh, 24 h, read-out: ED50) of the same compound?
A: 1.05 mg/kg

Q: What about the ED1-log kill (MR-VISA; neutropenic mice thigh, 24 h) of the same compound?
A: 3.7 mg/kg

Q: And the ED2-log kill (MR-VISA; neutropenic mice thigh, 24 h)?
A: 8.8 mg/kg

Q: And the ED2.6-log kill (MR-VISA; neutropenic mice thigh, 24 h)?
A: 12 mg/kg

Q: And the ED50 (MR-VISA; neutropenic mice thigh, 24 h)?
A: 1.0 mg/kg

Q: And the EDstasis (MR-VISA)?
A: 2.2 mg/kg

Q: And the EDstasis (MR-VISA; listed as compound 7)?
A: 2.22 mg/kg

Q: What about the Cmax [2] of the same compound?
A: 703 µg/mL

Q: What about the Cmin [2] of the same compound?
A: 1.7 µg/mL

Q: What about the half-life ([2]; female, CD-1, mouse, iv) of the same compound?
A: 2.76 h

Q: And the AUC(0-t) ([2]; female, CD-1, mouse, iv, read-out: AUC0-24 h)?
A: 562 µg·h/mL

Q: And the Cmax ([2]; female, CD-1, mouse, iv, 12 mg/kg, read-out: Cmax)?
A: 703 µg/mL

Q: And the clearance ([2]; female, CD-1, mouse, iv)?
A: 4.17

Q: And the AUC ([2]; female, CD-1, mouse, iv, 0.083 h to 24 h)?
A: 562 µg·h/mL

Q: What about the MIC [3] of the same compound?
A: 0.15 µM (≈ 0.298 µg/mL)

Q: And the MIC [4]?
A: 0.3 µM (≈ 0.596 µg/mL)

Q: What about the MIC [5] of the same compound?
A: 0.2 µM (≈ 0.397 µg/mL)

Q: And the “acute damage to liver and kidney functions” value ([6]; 48 h and 14 days)?
A: did not cause any significant acute damage; also recorded: no significant acute damage

Q: What about the Chloride ion ([6]; 48 h post-treatment) of the same compound?
A: 112.9 ± 1.52 mmol/L

Q: What about the “Kidney Creatinine” value ([6]; 48 h post-treatment) of the same compound?
A: 0.2 ± 0.133 mg/dL

Q: What about the “Liver ALT” value ([6]; 48 h post-treatment) of the same compound?
A: 55.23 ± 5.24 U L^−1

Q: What about the Potassium ion ([6]; 48 h post-treatment) of the same compound?
A: 6.86 ± 0.81 mmol/L

Q: And the Sodium ion ([6]; 48 h post-treatment)?
A: 143.63 ± 1.65 mmol/L

Q: What about the “Urea Nitrogen” value ([6]; 48 h post-treatment) of the same compound?
A: 19.52 ± 3.25 mg/dL

Q: What about the Chloride ion ([6]; 14 days post treatment) of the same compound?
A: 110.85 ± 2.16 mmol/L

Q: And the “Kidney Creatinine” value ([6]; 14 days post treatment)?
A: 0.22 ± 0.1 mg/dL

Q: What about the “Liver ALT” value ([6]; 14 days post treatment) of the same compound?
A: 53.28 ± 3.78 U L^−1

Q: What about the Potassium ion ([6]; 14 days post treatment) of the same compound?
A: 6.75 ± 0.833 mmol/L

Q: What about the Sodium ion ([6]; 14 days post treatment) of the same compound?
A: 143.04 ± 0.71 mmol/L

Q: What about the “Urea Nitrogen” value ([6]; 14 days post treatment) of the same compound?
A: 24.46 ± 4.93 mg/dL

Q: What about the “gross anatomical and histopathological examination of liver and kidney sections” value ([6]; compared to control) of the same compound?
A: no significant changes

Q: What about the LD50 at 14 days (Systemic toxicity (LD50)) of the same compound?
A: > 100 mg/kg
